{"source": "patent US8580814B2", "about": "“Methods of using (+)-1,4-dihydro-7-[(3S,4S)-3-methoxy-4-(methylamino)-1-pyrrolidinyl]-4- oxo-1-(2-thiazolyl)-1,8-naphthyridine-3-carboxylic acid for treatment of cancer” (priority 2006, dated 2013)", "key": {"[1]": {"tested_on": "SKOV3 ovarian cancer cell line with or without p53 expression", "test": "Combination studies, MTT assay, Combination Index", "assay_type": "cell-based", "conditions": "SNS-595 dosed simultaneously with a selection of DNA damaging agents and antimetabolites", "protocol": "(§1) Cell lines and Cell Culture: HCT116 and NCI-H460 cell lines were obtained from ATCC. SKOV3(p53−/−) and SKOV3(p53+/+) were obtained from the lab of Dr. George Stark of the Lerner Institute of the Cleveland Clinic. All cell lines were cultured in RPMI media supplemented with 10% FBS 1% Sodium Bicarbonate solution and 1% Antibiotic Solution (Cellgro).\n(§2) MTT assay: Cells were plated at 4000 cells per well (except SKOV3 (p53−/−) which were plated at 8000 cells per well) in a 96 well plate, incubated for 24 hours and then treated with compound. Compound treatment lasted 72 hours. Cells were then incubated with 5% MTT for 1-2 hours, and lysed. MTT was colorimetrically read at 570 nm. The fraction of dead cells was determined by the following formula: Fraction of Dead cells=1−[Abs of sample well−Avg(Abs of no cell control)]/[Avg(Abs of DMSO only control)−Avg(abs of no cell control)]\n(§3) Statistical Analysis: The data (Fraction of Dead cells) was analyzed using Calculsyn.V2 (Biosoft) and is herein represented as the value of the Combination Index at Fraction affected (Fa)=0.5. All data is shown with error bars indicating the 95% confidence intervals of the mean value.\n(§4) A combination is said to be additive if it yields a Combination Index of 0.85-1.2. […]"}, "[2]": {"tested_on": "H460 lung cancer cell line", "test": "Combination studies, MTT assay, Combination Index", "assay_type": "cell-based", "conditions": "SNS-595 dosed simultaneously with various cytotoxics, H460, Fa=0.5", "protocol": "as §1, §2, §3, §4"}, "[3]": {"tested_on": "ATRFLOX (HCT-116 cells with 6 fold lower ATR levels)", "test": "Timing of apoptosis (caspase-3 activation)", "assay_type": "cell-based", "conditions": "Cell Line ATRFLOX; dosed at 30 fold above the EC50 for cytotoxicity"}, "[4]": {"test": "Safety (adverse events, hematologic effects, DLT, MTD) in patients with advanced solid tumors", "assay_type": "in vivo", "protocol": "SNS-595 was administered to patients with advanced solid cancers as an IV infusion over 10 minutes on 2 schedules. In the first schedule (A), a weekly dose of SNS-595 was administered for three weeks followed by at least 7 days off (qwk×3). In the second schedule (B), a dose of SNS-595 was administered once every three weeks (q3wk).\nIn both schedules, the starting dose of SNS-595 was 3 mg/m^2, and doses were escalated by sequential cohorts of 3. The doses were doubled until the first related adverse event at or above Grade 2 or until the first abnormal lab value. The doses were then escalated by a modified Fibonacci schema.\nIn the description herein, the term “maximum tolerated dose” or “MTD” refers to the dose level below a dose of SNS-595 where ≧2 of 6 patients experienced dose limiting toxicity (DLT). The term, “heavily pretreated” or “HP” patient refers to a patient who has previously received >6 courses of an alkylating agent, chemotherapy or >2 courses of platinum, mitomycin-C or any nitrosourea, or XRT to >25% of bone. […] (See, Tolcher et al, JCO 2001; 19:2937-2947).\nAs used herein, dose limiting toxicity (DLT) refers to absolute neutrophil count (ANC) ≦500 for ≧7 days or febrile neutropenia or platelet nadir <25000 or bleeding or non-hematologic adverse events (AE) ≧Grade 3 (as described in Common Terminology Criteria for Adverse Events Version 3.0 (CTCAE v3.0)), wherein adverse events required >14 days dose delay."}, "DNAPKcs(−/−) (MO59J)": {"tested_on": "DNAPKcs(−/−) (MO59J)", "test": "Timing of apoptosis (caspase-3 activation)", "assay_type": "cell-based", "conditions": "Cell Line DNAPKcs(−/−); dosed at 30 fold above the EC50 for cytotoxicity"}, "clinical": {"test": "clinical", "conditions": "human, in vivo; for AUC(0-inf) / half-life: both sexes", "protocol": "SNS-595 was administered to patients with advanced or refractory acute leukemias as a slow IV push. Diagnoses included AML (19 patients) and ALL (2 patients). All patients had disease refractory to or relapsed from prior therapy (median 3 prior regimens (range 1-6)).\nA total of 21 patients (9 female and 12 male; median age=64 yrs, range 21-80) were treated in five cohorts using two schedules. In the first schedule (A), a weekly dose of SNS-595 was administered for three weeks followed by 7 days off (qwk×3). In the second schedule (B), a dose of SNS-595 was administered twice a week for two weeks (biwk×2). The cycle duration, including days off, was 28 days for both schedules. […] Additional cycles were permitted if patients achieved stable disease or better. The starting dose was 18 mg/m^2 on schedule A and 9 mg/m^2 on schedule B, and dosage was escalated by cohort. Cohorts of 3-6 patients were accrued to doses using a modified Fibonacci sequence.\nPharmacokinetic analyses for SNS-595 were performed on plasma samples collected during cycle 1.\nPlasma SNS-595 concentrations were determined using a validated LC-MS/MS assay. Plasma exposures at the first two dose levels for each schedule increased linearly, resulting in AUCs of 4.3-17.8 ughr/mL for 9-27 mg/m^2 doses. […] Six patients distributed across all dosing groups shown in Table 15 experienced greater than 50% reductions in peripheral blasts following cycle 1."}, "[5]": {"set-up": "species or system female CD-1 mice", "conditions": "mouse, in vivo", "protocol": "Female CD-1 mice were administered 5, 10, 15, or 20 mg/kg SNS-595 intravenously on Day 0 and Day 4. Blood was drawn on days 6, 8, and 12 post initial injection for hematological analysis. Femurs were extracted on day 6 fixed in Streck and H&E stained prior to bone marrow cellularity analysis. […] At 20 mg/kg, cellularity was reduced to 7.5%, while circulating neutrophils were reduced from a pre-dose level of […] to a nadir of 51±24 cells/mL blood on day 8."}}, "note": "Marks after values point to notes of the source that are not given here.", "data": [{"smiles": "CN[C@H]1CN(c2ccc3c(=O)c(C(=O)O)cn(-c4nccs4)c3n2)C[C@@H]1OC", "note": "[SNS-595, (+)-1,4-dihydro-7-[(3S,4S)-3-methoxy-4-(methylamino)-1-pyrrolidinyl]-4-oxo-1-(2-thiazolyl)-1,8-naphthyridine-3-carboxylic acid]", "values": [{"measurement": "change in the combination index between SKOV3 with or without p53 expression", "setting": "[1]", "result": "no significant change"}, {"measurement": "combination indices", "setting": "[2]", "result": "significantly synergistic or at least additive"}, {"measurement": "Timing of apoptosis: fraction of cell cycle to achieve 50% maximal caspase-3 activation", "setting": "[3]", "result": 0.35}, {"measurement": "dose limiting toxicity (DLT)", "setting": "[4]; human, in vivo", "result": "neutropenia"}, {"measurement": "dose-limiting toxicity (DLT)", "setting": "[4]; human, in vivo", "result": "neutropenia"}, {"measurement": "edema peripheral, no. patients with Grade ≧ 3/no. patients with any Grade", "setting": "[4]; human, in vivo", "result": "0/4*"}, {"measurement": "grade 4 thrombocytopenia", "setting": "[4]; human, in vivo", "result": "two patients"}, {"measurement": "non-hematologic toxicities", "setting": "[4]; human, in vivo", "result": "mostly grade 1/2"}, {"measurement": "pain in extremity, no. patients with Grade ≧ 3/no. patients with any Grade", "setting": "[4]; human, in vivo", "result": "0/5"}, {"measurement": "SAE possibly related to study drug: Sepsis, CTCAE v3.0 Grade", "setting": "[4]; q3wk, 1 patient", "result": "Grade 3"}, {"measurement": "MTD", "setting": "[4]; study A (qwk×3)", "result": 15, "unit": "mg/m^2"}, {"measurement": "MTD", "setting": "[4]; study B (q3wk), heavily pretreated (HP) patients", "result": 48, "unit": "mg/m^2"}, {"measurement": "MTD", "setting": "[4]; study B (q3wk), minimally pretreated (MP) patients", "result": 60, "unit": "mg/m^2"}, {"measurement": "Timing of apoptosis: fraction of cell cycle to achieve 50% maximal caspase-3 activation", "setting": "DNAPKcs(−/−) (MO59J)", "result": 0.25}, {"measurement": "AUC(0-inf)", "setting": "clinical; 9 mg/m2", "result": "4300 ± 1300", "unit": "ng·h/mL"}, {"measurement": "AUC(0-inf)", "setting": "clinical; 13.5 mg/m2", "result": "5900 ± 2900", "unit": "ng·h/mL"}, {"measurement": "half-life", "setting": "clinical; 13.5 mg/m2", "result": "21 ± 7", "unit": "h"}, {"measurement": "AUC(0-inf)", "setting": "clinical; 18 mg/m2", "result": "8000 ± 1400", "unit": "ng·h/mL"}, {"measurement": "AUC(0-inf)", "setting": "clinical; 27 mg/m2", "result": "17800 ± 5000", "unit": "ng·h/mL"}, {"measurement": "half-life", "setting": "clinical; 27 mg/m2", "result": "22 ± 10", "unit": "h"}, {"measurement": "terminal half-lives, averaged", "setting": "clinical; both", "result": 23, "unit": "h"}, {"measurement": "T ½", "setting": "clinical; both, 9 mg/m2", "result": "24 ± 5", "unit": "h"}, {"measurement": "Vssobs", "setting": "clinical; both, 9 mg/m2", "result": "65 ± 2", "unit": "L/m^2"}, {"measurement": "Vssobs", "setting": "clinical; both, 13.5 mg/m2", "result": "61 ± 6", "unit": "L/m^2"}, {"measurement": "T ½", "setting": "clinical; both, 18 mg/m2", "result": "24 ± 4", "unit": "h"}, {"measurement": "Vssobs", "setting": "clinical; both, 18 mg/m2", "result": "72 ± 21", "unit": "L/m^2"}, {"measurement": "Vssobs", "setting": "clinical; both, 27 mg/m2", "result": "47 ± 21", "unit": "L/m^2"}, {"measurement": "CL, averaged", "setting": "clinical", "result": "~2", "unit": "L/hr/m^2"}, {"measurement": "Vss, averaged", "setting": "clinical", "result": 58, "unit": "L/m^2"}, {"measurement": "peripheral neutrophils", "setting": "[5]", "result": "significant decrease"}, {"measurement": "platelet response", "setting": "[5]", "result": "minor platelet response"}, {"measurement": "Total WBCs", "setting": "[5]; iv", "result": "reached a nadir on day 8, but returned to normal levels"}]}]}
